Source: PubChem BioAssay (NCI)
“And” between values parts separate entries of the source, which are not always exact repeats. Equal entries are not always repeated.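 Dose response: 5 concentrations. Exposure: 48 h. Format: 96-well plates. Endpoint: linear interpolation; highest concentration if not reached. Here, GI50 denotes the concentration required for 50% inhibition of growth. TGI: total growth inhibition.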 The source made the active and inactive calls. Cut-off read from the data, not from the text of the source: active = GI50 below about 0.43 µM; inactive = the rest.

Test system: MDA-MB-468 breast
Experiment: inhibition of tumour cell growth, NCI panel, 48 h

Going from `NC(=NCc1ccccc1)C(N=Nc1ccccc1)C(=O)NCc1ccccc1` (stereo not given) to `CC(C)(C)Nc1nc2c(OCCc3ccccc3)cccn2c1-c1cccc(Oc2ccccc2)c1`, the GI50 falls from 11500 nM to 2200 nM (5.2-fold).

First: O=C(CCl)NCCNc1nccc(Nc2ccc(S(=O)(=O)Nc3ccccn3)cc2)n1
Second: Oc1ccc(Nc2ccc3ccccc3c2)cc1
The GI50 of the first is 7.7-fold lower: 1050 nM for the first, 8050 nM for the second.

Compared with `O=C1/C=C/[C@@H](O)[C@@H]2C[C@@H](O)C[C@H]2/C=C/CCC[C@H](CCc2cccc3ccccc23)O1`, `C=C1C(=O)O[C@H]2[C@H]1CC/C(COC(=O)NCc1c[nH]c3ccccc13)=C\CC[C@@]1(C)O[C@@H]21` is 32-fold higher in GI50: 25.3 nM for the first, 820 nM for the second.

Going from `CCCc1n(Cc2ccc3ccccc3c2)cc[n+]1Cc1ccc2ccccc2c1` to `CC1CCN(Cc2ccc(NC(=O)c3cc4ccc5cccnc5c4[nH]3)cc2)CC1`, the GI50 rises from 277 nM to 2610 nM (9.4-fold).

First: COc1ccc(/C=C2\CN(C(=O)C(Cl)Cl)C/C(=C\c3ccc(OC)cc3)C2=O)cc1
Second: O=C1/C(=C/c2ccccc2)CN(C(=O)C(Cl)Cl)C/C1=C\c1ccccc1
The GI50 of the first is 3-fold higher: 1040 nM for the first, 342 nM for the second.

Going from `COc1ccc2c(c1)c(-c1nc(-c3c[nH]c4ncccc34)cs1)cn2CCCN1CCCCC1` to `O=S(=O)(CCN1CCOCC1)Nc1cc(-c2ccc3ncnc(Nc4ccc(F)c(Cl)c4)c3c2)cnc1Cl`, the GI50 falls from 1860 nM to 198 nM (9.4-fold).

First: COC1C(O)CC(OC2CC(OC3CC(O[C@@H]4C(=O)c5c(cc6cc(OC7CC(OC8CC(O)C(O)C(C)O8)C(O)C(C)O7)c(C)c(O)c6c5O)CC4[C@H](OC)C(=O)O)OC(C)C3O)OC(C)C2O)OC1C (stereo not given in full)
Second: COc1cc2c(c(OC)c1OC)-c1ccc(O)cc1[C@@H](NC(C)=O)CC2
The GI50 of the first is 110-fold higher: 2590 nM for the first, 24.4 nM for the second.

Going from `O=C(CC1(O)C(=O)N(Cc2ccccc2)c2ccc(Cl)cc21)c1ccc(C(=O)NCC2CCC3(CC2)OOC2(CCCCC2)OO3)cc1` (stereo not given) to `Cc1c(-c2ccc(C3CCCCC3)cc2)nc2ccc(F)cc2c1C(=O)O`, the GI50 rises from 1270 nM to 19100 nM (15-fold).

`CC(=O)/C(=C/c1ccccc1)C(=O)CC(C)C` and `Cn1ccnc1C(=O)/C=C/c1ccc(NC(=O)Nc2ccccc2)cc1` are within 1.5-fold of each other in GI50: 11100 nM for the first, 11400 nM for the second.

Compared with `O=c1oc2ccc(I)cc2c(=O)n1-c1ccc(F)cc1F`, `Cn1c(=O)c(Oc2ccc(F)cc2F)cc2cnc(NC(C)(C)CO)nc21` is higher in GI50: 2230 nM for the first, > 25000 nM for the second.

Going from `COc1cc(C2CC(c3cccc(Nc4ccnc5cc(Cl)ccc45)c3)=NN2c2ccc(Cl)cc2)cc(OC)c1OC` (stereo not given) to `COc1ccc(C=Nc2c(C(=O)Nc3cccc(Cl)c3C)sc3nc(C)c(C(=O)/C=C/c4ccc(OC)cc4)cc23)cc1`, the GI50 falls from 6290 nM to 200 nM (31-fold).

Going from `C[C@H]1/C(=C/C(=O)OCCN(C)C)CC[C@H]2[C@H]1C(=O)C[C@H]1C(C)(C)[C@@H](O)CC[C@]21C` to `CCCCN1CCCC[C@@H]1C(=O)N[C@H](C(=O)N(C)[C@H](C[C@@H](OC(C)=O)c1nc(C(=O)NC2CCC(C(=O)OC)CC2)cs1)C(C)C)C(C)C` (stereo not given in full), the GI50 falls from > 100000 nM to 707 nM.

First: COc1cc(OC)cc(-c2ccc(-c3ccc(C(=N)N)cn3)o2)c1
Second: Cc1ccc2oc(=O)cc(/C(=C3/C=CC=N3)c3ccc[nH]3)c2c1
The GI50 of the first is 6.2-fold higher: 1510 nM for the first, 243 nM for the second.

Going from `C=C1CC2(CC(c3ccccc3Cl)OC(c3ccccc3Cl)C2)OC1=O` (stereo not given) to `O=C(O)[C@H](Cc1c[nH]c2ccccc12)N1C(=O)c2ccccc2C1=O`, the GI50 rises from 1750 nM to > 100000 nM.

Going from `CCCCOC(=O)c1ccc(N)cc1` to `CCN1CCC(Nc2ccnc3cc(Cl)ccc23)CC1`, the GI50 falls from 84600 nM to 13300 nM (6.4-fold).

Going from `CCCCCCCCCCCCCCCC1=NCCN1` to `CCCCC(CCCCCC(CCCC)NCc1ccc2c(c1)OCO2)NCc1ccc2c(c1)OCO2` (stereo not given), the GI50 falls from 2220 nM to 480 nM (4.6-fold).

First: CSc1c(C2=C(c3cn(C)c4ccccc34)C(=O)NC2=O)c2ccccc2n1C
Second: Nc1c(C(=O)Nc2ccccc2)sc2nc3c(cc12)CCCCC3
The GI50 of the first is 2.2-fold higher: 562 nM for the first, 254 nM for the second.

First: CC/C=C\C[C@H](F)C/C=C1/C(=O)C=C[C@@H]1C/C=C\CCCC(=O)OC
Second: CN(C)CCCN(CCC1CCCCC1)CCC1CCCCC1
The GI50 of the first is 3.6-fold higher: 5260 nM for the first, 1460 nM for the second.

Compared with `NC(=NCc1ccccc1)C(N=Nc1ccccc1)C(=O)NCc1ccccc1` (stereo not given), `CC(C)(C)Nc1nc2c(OCCc3ccccc3)cccn2c1-c1cccc(Oc2ccccc2)c1` is 3.9-fold lower in TGI: 26400 nM for the first, 6750 nM for the second.

Compared with `O=C(CCl)NCCNc1nccc(Nc2ccc(S(=O)(=O)Nc3ccccn3)cc2)n1`, `Oc1ccc(Nc2ccc3ccccc3c2)cc1` is 5.9-fold higher in TGI: 4530 nM for the first, 26700 nM for the second.

First: O=C1/C=C/[C@@H](O)[C@@H]2C[C@@H](O)C[C@H]2/C=C/CCC[C@H](CCc2cccc3ccccc23)O1
Second: C=C1C(=O)O[C@H]2[C@H]1CC/C(COC(=O)NCc1c[nH]c3ccccc13)=C\CC[C@@]1(C)O[C@@H]21
The TGI of the first is 41-fold lower: 86.7 nM for the first, 3580 nM for the second.

Compared with `CCCc1n(Cc2ccc3ccccc3c2)cc[n+]1Cc1ccc2ccccc2c1`, `CC1CCN(Cc2ccc(NC(=O)c3cc4ccc5cccnc5c4[nH]3)cc2)CC1` is 17-fold higher in TGI: 980 nM for the first, 16300 nM for the second.

First: COc1ccc(/C=C2\CN(C(=O)C(Cl)Cl)C/C(=C\c3ccc(OC)cc3)C2=O)cc1
Second: O=C1/C(=C/c2ccccc2)CN(C(=O)C(Cl)Cl)C/C1=C\c1ccccc1
The TGI of the first is 2-fold higher: 2740 nM for the first, 1380 nM for the second.

Compared with `COc1ccc2c(c1)c(-c1nc(-c3c[nH]c4ncccc34)cs1)cn2CCCN1CCCCC1`, `O=S(=O)(CCN1CCOCC1)Nc1cc(-c2ccc3ncnc(Nc4ccc(F)c(Cl)c4)c3c2)cnc1Cl` is 2.3-fold lower in TGI: 3560 nM for the first, 1560 nM for the second.

Compared with `COC1C(O)CC(OC2CC(OC3CC(O[C@@H]4C(=O)c5c(cc6cc(OC7CC(OC8CC(O)C(O)C(C)O8)C(O)C(C)O7)c(C)c(O)c6c5O)CC4[C@H](OC)C(=O)O)OC(C)C3O)OC(C)C2O)OC1C` (stereo not given in full), `COc1cc2c(c(OC)c1OC)-c1ccc(O)cc1[C@@H](NC(C)=O)CC2` is 180-fold lower in TGI: 12400 nM for the first, 68.4 nM for the second.

First: O=C(CC1(O)C(=O)N(Cc2ccccc2)c2ccc(Cl)cc21)c1ccc(C(=O)NCC2CCC3(CC2)OOC2(CCCCC2)OO3)cc1 (stereo not given)
Second: Cc1c(-c2ccc(C3CCCCC3)cc2)nc2ccc(F)cc2c1C(=O)O
The TGI of the first is lower: 4260 nM for the first, > 100000 nM for the second.

`CC(=O)/C(=C/c1ccccc1)C(=O)CC(C)C` and `Cn1ccnc1C(=O)/C=C/c1ccc(NC(=O)Nc2ccccc2)cc1` are within 1.5-fold of each other in TGI: 28000 nM for the first, 27500 nM for the second.

Going from `O=c1oc2ccc(I)cc2c(=O)n1-c1ccc(F)cc1F` to `Cn1c(=O)c(Oc2ccc(F)cc2F)cc2cnc(NC(C)(C)CO)nc21`, the TGI rises from 5690 nM to > 25000 nM.

Compared with `COc1cc(C2CC(c3cccc(Nc4ccnc5cc(Cl)ccc45)c3)=NN2c2ccc(Cl)cc2)cc(OC)c1OC` (stereo not given), `COc1ccc(C=Nc2c(C(=O)Nc3cccc(Cl)c3C)sc3nc(C)c(C(=O)/C=C/c4ccc(OC)cc4)cc23)cc1` is lower in TGI: > 100000 nM for the first, 2200 nM for the second.

Compared with `C[C@H]1/C(=C/C(=O)OCCN(C)C)CC[C@H]2[C@H]1C(=O)C[C@H]1C(C)(C)[C@@H](O)CC[C@]21C`, `CCCCN1CCCC[C@@H]1C(=O)N[C@H](C(=O)N(C)[C@H](C[C@@H](OC(C)=O)c1nc(C(=O)NC2CCC(C(=O)OC)CC2)cs1)C(C)C)C(C)C` (stereo not given in full) is lower in TGI: > 100000 nM for the first, 8180 nM for the second.

Compared with `COc1cc(OC)cc(-c2ccc(-c3ccc(C(=N)N)cn3)o2)c1`, `Cc1ccc2oc(=O)cc(/C(=C3/C=CC=N3)c3ccc[nH]3)c2c1` is 3-fold lower in TGI: 3100 nM for the first, 1020 nM for the second.

Compared with `C=C1CC2(CC(c3ccccc3Cl)OC(c3ccccc3Cl)C2)OC1=O` (stereo not given), `O=C(O)[C@H](Cc1c[nH]c2ccccc12)N1C(=O)c2ccccc2C1=O` is higher in TGI: 3430 nM for the first, > 100000 nM for the second.

Compared with `CCCCOC(=O)c1ccc(N)cc1`, `CCN1CCC(Nc2ccnc3cc(Cl)ccc23)CC1` is lower in TGI: > 100000 nM for the first, 32000 nM for the second.

Compared with `CCCCCCCCCCCCCCCC1=NCCN1`, `CCCCC(CCCCCC(CCCC)NCc1ccc2c(c1)OCO2)NCc1ccc2c(c1)OCO2` (stereo not given) is 4.1-fold lower in TGI: 4070 nM for the first, 981 nM for the second.

Going from `CSc1c(C2=C(c3cn(C)c4ccccc34)C(=O)NC2=O)c2ccccc2n1C` to `Nc1c(C(=O)Nc2ccccc2)sc2nc3c(cc12)CCCCC3`, the TGI falls from > 25000 nM to 946 nM.

Going from `CC/C=C\C[C@H](F)C/C=C1/C(=O)C=C[C@@H]1C/C=C\CCCC(=O)OC` to `CN(C)CCCN(CCC1CCCCC1)CCC1CCCCC1`, the TGI falls from 17200 nM to 3070 nM (5.6-fold).

For `CCCCCCCCCCCCCCCCCc1nccn1CCOCCO`, the outcome was “inactive”.

`Cc1ccc(Nc2nccc(N(C)c3ccc4c(C)n(C)nc4c3)n2)cc1S(N)(=O)=O` was tested, and the GI50 was 1770 nM and 2370 nM and 2200 nM.

`Cc1ccc(Nc2nccc(N(C)c3ccc4c(C)n(C)nc4c3)n2)cc1S(N)(=O)=O` was tested, and the TGI was > 100000 nM and > 10000 nM and 45200 nM.
